Source: US20260174739A1 (priority 2022, published 2026)
Where a name gives a salt, the structure may show the parent alone. Read-outs that look alike come from different tables or passages of the source.

Key:
[1] = target: human DAT (Homo sapiens, UniProt Q01959); test: DAT transporter inhibitory activity test (neurotransmitter transporter uptake assay kit); format: cell-based
Experimental: (§1) Transporter inhibition of human DAT and NET expressed in HEK-293 cells was assessed using a neurotransmitter transporter uptake assay kit. The assay was performed as described in the kit instructions, using centanafadine as a positive control. The specific procedures were as follows:
DAT stably transfected culture: The DAT-HEK cell line was cultured in DMEM medium containing 10% fetal bovine serum and 0.2 mg/mL hygromycin B at 37° C. with 5% carbon dioxide.
DAT stably transfected cell passage: the old medium was removed, and the cells were washed once with PBS; 1 mL of TrypLE™ Express solution was then added, and the cells were incubated at 37° C. for about 2 min. When the cells were detached from the bottom of the dish, about 5 mL of complete medium pre-heated at 37° C. was added. The cell suspension was gently pipetted to separate the aggregated cells. The cell suspension was transferred to a sterile centrifuge tube and centrifuged at 1000 rpm for 5 min. In order to maintain the physiological activity of the cells, the experimental cell confluence was controlled at about 80%.
• a) After overnight transfection of NET cells, the cells were digested with trypsin, resuspended with DMEM+10% Dialyzed FBS medium, seeded into a 384-well plate at 20000 cells/well, and incubated overnight. […] After centrifuging, the plate was incubated at 37° C. for 30 min. • e) A detection reagent was prepared using 1×HBSS, and 16 μL of the detection reagent was added to each well. […] Curve fitting and IC50 calculation were performed using GraphPad Prism software nonlinear regression method.

[2] = target: human NET (Homo sapiens, UniProt P23975); test: NET transporter inhibitory activity test (neurotransmitter transporter uptake assay kit); format: cell-based
Sequence of human NET (P23975 whole entry): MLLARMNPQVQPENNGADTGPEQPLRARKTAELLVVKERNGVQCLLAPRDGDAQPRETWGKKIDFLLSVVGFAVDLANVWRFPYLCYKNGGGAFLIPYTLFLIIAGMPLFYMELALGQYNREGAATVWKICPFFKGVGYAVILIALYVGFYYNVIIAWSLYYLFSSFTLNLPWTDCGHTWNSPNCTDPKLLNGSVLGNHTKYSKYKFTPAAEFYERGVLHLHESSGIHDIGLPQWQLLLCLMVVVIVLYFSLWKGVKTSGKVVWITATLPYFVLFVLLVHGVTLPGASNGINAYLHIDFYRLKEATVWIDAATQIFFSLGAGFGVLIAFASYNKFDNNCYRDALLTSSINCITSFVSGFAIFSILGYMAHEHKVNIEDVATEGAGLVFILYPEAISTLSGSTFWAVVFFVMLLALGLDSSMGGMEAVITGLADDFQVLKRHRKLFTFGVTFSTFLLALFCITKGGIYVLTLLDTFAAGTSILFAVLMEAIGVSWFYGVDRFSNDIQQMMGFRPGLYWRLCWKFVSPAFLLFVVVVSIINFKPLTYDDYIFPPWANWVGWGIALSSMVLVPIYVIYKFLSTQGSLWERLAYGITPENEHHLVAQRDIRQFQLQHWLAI
Experimental: as §1
First day cell plating: HEK 293T cells were digested with trypsin, centrifuged, resuspended with a medium, counted, and seeded into a 6 cm culture dish at a density of 3×10^6 cells/well.
Second day cell transfection: HEK 293T cells were subjected to medium exchange, and then A, B tubes were prepared for NET-pcDNA5/FRT plasmid to be transfected. 200 μL of Opti-MEM was added to tube A, and 10 μL of Lipofectamine™ 3000 was added. The mixture was mixed well. 200 μL of Opti-MEM was added to tube B, and 5 μg of NET-pcDNA5/FRT plasmid was added. The mixture was mixed well, and then 10 μL of P3000™ was added to tube B. The mixture was mixed well (plasmid to transfection reagent ratio 1 μg:2 μL). The diluted solution of tube A was added to the diluted solution of tube B. The mixture was mixed well, and incubated at room temperature for 15 min. Finally, the mixture was gently added to the cells that had been subjected to medium exchange, gently shaken to mix, and then incubated overnight in an incubator at 37° C. with a carbon dioxide concentration of 5%. The cells were used for compound functional activity assays 18-20 h after transfection.
• a) After overnight transfection of NET cells, the cells were digested with trypsin, resuspended with DMEM+10% Dialyzed FBS medium, seeded into a 384-well plate at 20000 cells/well, and incubated overnight. Stably transfected DAT cells were digested with trypsin, resuspended with DMEM+10% Dialyzed FBS medium, seeded into a 384-well plate at 2500 cells/well, and incubated overnight. • b) 1× Assay buffer was prepared according to the kit instruction for later use; the positive compound and the test compound were serially diluted with DMSO, and then diluted to 2× with 1× assay buffer. • c) The medium was removed from the 384-well plate by centrifugation. • d) 16 μL of the compound prepared in step b) was added to corresponding experimental wells, wherein an initial concentration of 2× positive control compound was added to the positive control well, and 0.2% DMSO buffer was added to the negative control well. After centrifuging, the plate was incubated at 37° C. for 30 min. • e) A detection reagent was prepared using 1×HBSS, and 16 μL of the detection reagent was added to each well. After centrifuging, the plate was incubated at 37° C. for 60 min. • f) After incubation, the reading at 510 nm under the excitation of the detection wavelength of 425 nm was measured using a microplate reader. Curve fitting and IC50 calculation were performed using GraphPad Prism software nonlinear regression method.

[3] = target: human SERT (Homo sapiens, UniProt P31645); test: Inhibitory activity assay against 5-HT transporter (neurotransmitter transporter uptake assay kit); format: cell-based; settings: HEK-293 cells overexpressing human SERT; read-out: 5-HTT (IC50)
Sequence of human SERT (P31645 whole entry): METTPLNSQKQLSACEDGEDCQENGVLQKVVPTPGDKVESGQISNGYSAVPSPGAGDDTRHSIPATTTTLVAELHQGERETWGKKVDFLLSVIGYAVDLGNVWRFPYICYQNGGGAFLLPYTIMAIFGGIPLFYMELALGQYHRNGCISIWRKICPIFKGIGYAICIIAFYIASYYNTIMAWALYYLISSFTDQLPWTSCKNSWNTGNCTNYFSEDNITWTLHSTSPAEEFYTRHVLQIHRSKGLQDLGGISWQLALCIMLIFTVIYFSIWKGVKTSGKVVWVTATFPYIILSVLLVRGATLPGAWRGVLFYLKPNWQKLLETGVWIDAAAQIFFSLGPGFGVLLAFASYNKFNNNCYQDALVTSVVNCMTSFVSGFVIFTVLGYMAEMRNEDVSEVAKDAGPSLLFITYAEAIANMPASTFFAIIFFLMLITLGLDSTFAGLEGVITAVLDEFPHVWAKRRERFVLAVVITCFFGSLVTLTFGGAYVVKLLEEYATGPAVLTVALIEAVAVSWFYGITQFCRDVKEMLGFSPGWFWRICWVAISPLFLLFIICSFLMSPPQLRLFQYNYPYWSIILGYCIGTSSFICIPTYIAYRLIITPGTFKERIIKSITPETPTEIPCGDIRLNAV
Experimental: In HEK-293 cells overexpressing human SERT, the transporter inhibitory effect of the test compound on human SERT was assayed using a Neurotransmitter transporter uptake assay kit (Molecular devices).

[4] = Human liver microsome assay (metabolic stability); format: in vitro ADME; settings: pH 7.4, human liver microsomes 0.2 mg/mL, 1 μM test drug, NADPH, 37° C.
Experimental: Control and reagent: NADPH, magnesium chloride, testosterone, phosphate buffer, etc. were supplied by Dalian Meilun Biotech Co., Ltd., etc.
Liver microsome: human liver microsomes were supplied by Corning.
Experimental step: the liver microsome incubations were performed in 96-well plates, each incubation system having a volume of 200 μL, in a medium of 0.1 M phosphate buffer (pH 7.4), including liver microsomes at a final concentration of 0.2 mg/mL, 1 μM of the test drug, 3.0 mM MgCl2, 0.01% DMSO, 0.5% acetonitrile, and 2.0 mM NADPH. The incubation system described above without NADPH was pre-incubated at 37° C. for 5 min using a rotary water bath constant temperature oscillator. NADPH was added to initiate the reaction. At 0, 5, 15, 30, and 60 min, 20 μL of the sample was taken out from the incubation system after mixing well and added to 200 μL of acetonitrile containing an internal standard to terminate the reaction. Under the same conditions, 1 μM testosterone was used as a positive control to assess the reliability of the reaction system. For the negative control, phosphate buffer was used instead of NADPH, and all other incubation conditions remained the same. At 60 min, 20 μL of the sample was taken out after mixing well and added to 200 μL of termination solution containing an internal standard to terminate the reaction.
Sample analysis: After treatments such as precipitated protein extraction with an organic solvent, the incubated sample was analyzed using liquid chromatography-tandem mass spectrometry (LC-MS/MS). The concentrations of the test drug or the positive control drug in the sample were semi-quantified. The concentration in the sample was expressed using the ratio of the analyte peak area to the internal standard peak area.
Data processing and analysis: A standard curve of the In residual rate of the drug in the incubation system with respect to the incubation time was plotted by using Excel software, linear regression was performed to obtain a slope k, and the half-life T1/2 (min) and the intrinsic clearance CLint (mL/min/kg) were calculated according to the following formula: […]

[5] = In vivo metabolism (pharmacokinetic) experiment in mice; design: species or system male ICR mice; settings: mouse, male ICR mice; for bioavailability: oral 10 mg/kg vs iv 2.5 mg/kg, read-out: F (%); for AUC(0-inf) / Cmax / half-life: oral 10 mg/kg, plasma; for AUC(0-inf): read-out: AUC0-inf(po); for Cmax: read-out: Cmax (po); for half-life: read-out: T1/2 (po) (converted)
Experimental: Animal: male ICR mice. The animals were randomly assigned to treatment groups and fasted for 12 h prior to dosing.
Drug: the compound of the present disclosure was dissolved in a vehicle (5% DMSO+5% Solutol HS15+90% saline). For intravenous (iv) administration, the dose was 2.5 mg/kg with a dosing volume of 5 mL/kg; for oral (po) administration, the dose was 10 mg/kg with a dosing volume of 10 mL/kg body weight. Sample collection and bioanalysis: blood was collected from the orbit of the mice and added into EP tubes containing heparin sodium at 0.083, 0.25, 0.5, 1, 2, 4, 6, and 8 h (n=3 for each time point). Immediately after blood collection, the mice were euthanized by cervical dislocation, and mouse brains were collected at the corresponding time points. All samples were promptly collected, snap-frozen, and stored at −70° C. for later use. Plasma samples were obtained by centrifugation of whole blood. 10 μL of plasma was mixed with 190 μL of internal standard solution (20 ng/ml in acetonitrile containing 0.1% formic acid). After mixing, the samples were centrifuged at 13000 rpm for 10 min, and 120 μL of the supernatant was separately collected. Depending on the sensitivity of the compound, 0.5-10 μL of the supernatant was taken for drug analysis using the appropriate liquid chromatography-tandem mass spectrometry (LC-MS/MS). Each analyte was calibrated and identified using standards. According to brain tissue: the extract (50% acetonitrile/water) at a ratio of 1 g:8 mL was homogenized for 2 min using five 3 mm magnetic beads in an OMNI Bead Ruptor 24 Elite homogenizer at 3.2 m/s and centrifuged at 4° C. and 3000 g for 3 min. 50 μL of the supernatant was mixed with 200 μL of internal standard solution (20 ng/mL in 80% acetonitrile/water). After mixing, the samples were centrifuged at 13,000 rpm for 10 min, and 120 μL of the supernatant was separately collected. Depending on the sensitivity of the compound, 0.5-10 μL of the supernatant was taken for drug analysis using the appropriate LC-MS/MS method. Each analyte was calibrated and identified using standards.
Data analysis: drug concentrations below the lower limit of quantification (LLOQ) were considered zero. Pharmacokinetic parameters were analyzed using PK Solver with a non-compartmental, bolus injection or extravascular input analysis models. Data points below the LLOQ were excluded to improve the efficacy of t1/2 calculation.

[6] = system: male C57 mice; test: Forced swim test; format: in vivo; settings: intraperitoneal injection, test 0.5 h after dosing, motionless time in last 4 min
Experimental: Drug: the compound of the present disclosure was first uniformly mixed with 5% DMSO and 5% Solutol® HS 15. hysiological saline was then added to make up 90% of the final volume. The mixture was prepared at an appropriate concentration immediately before use.
Animal: male C57 mice, about 22 g. The animals were randomly divided into a blank control group and test drug groups, 8 animals per group, and mice in each group were administered either the vehicle or the test compound via intraperitoneal injection.
Experimental steps: the mice were subjected to forced swim test 0.5 h after dosing. The water level in the forced swim device was 45 cm, and the water temperature was 25° C. The mice were placed in an experimental room to adapt to the environment for 1 h before the experiment began. When the experiment began, the mice were placed in the device for 6 min, and the whole process was recorded by a camera. Only the motionless time of the mice in the last 4 min was counted when data were analyzed.

[7] = NET transiently transfected HEK 293T cells, read-out: NET (IC50)
[8] = DAT stably transfected HEK cells, read-out: DAT (IC50)

Sequence of human DAT (Q01959 whole entry): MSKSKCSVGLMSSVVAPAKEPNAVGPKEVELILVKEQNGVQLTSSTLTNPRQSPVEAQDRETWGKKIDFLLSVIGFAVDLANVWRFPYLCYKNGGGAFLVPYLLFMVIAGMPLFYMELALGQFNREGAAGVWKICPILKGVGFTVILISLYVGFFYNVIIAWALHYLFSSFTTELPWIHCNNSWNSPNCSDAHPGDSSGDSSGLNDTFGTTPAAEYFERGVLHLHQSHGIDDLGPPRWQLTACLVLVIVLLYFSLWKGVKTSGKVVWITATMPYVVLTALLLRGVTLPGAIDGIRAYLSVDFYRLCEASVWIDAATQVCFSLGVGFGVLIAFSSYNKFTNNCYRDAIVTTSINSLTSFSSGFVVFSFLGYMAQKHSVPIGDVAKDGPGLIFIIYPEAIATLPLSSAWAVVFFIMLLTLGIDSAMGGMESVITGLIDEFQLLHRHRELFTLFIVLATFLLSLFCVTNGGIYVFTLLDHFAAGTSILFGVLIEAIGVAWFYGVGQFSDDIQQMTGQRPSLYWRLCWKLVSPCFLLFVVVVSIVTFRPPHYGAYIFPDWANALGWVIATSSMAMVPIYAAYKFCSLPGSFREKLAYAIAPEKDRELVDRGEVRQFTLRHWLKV

Structure (SMILES)	IC50 [2] [nM]	IC50 [1, 8] [nM]	IC50 [3] [nM]	further results
c1ccc2cc([C@]34CNC[C@H]3C4)ccc2c1 [Centanafadine, centanafadine, reference compound]	30			IC50 [1]: 80 nM
Nc1nc2c(s1)C[C@](c1ccccc1)(N1CCCC1)CC2 [R-A50]				IC50 [2, 7]: 200 nM
CNC1(c2ccc(C(F)(F)F)cc2)CCc2nc(N)sc2C1 (racemic) [rac-A96, 6-(4-trifluoromethylphenyl)-N^6-methyl-4,5,6,7-tetrahydrobenzothiazole-2,6-diamine hydrobromide]	14000			
c1ccc([C@@]2(N3CCCC3)CCc3[nH]ncc3C2)cc1 [R-A12]		2000		IC50 [2, 7]: 3800 nM
CN(C)C1(c2ccccc2)CCc2nc(N)sc2C1 (racemic) [rac-A114, N^6,N^6-dimethyl-6-phenyl-4,5,6,7-tetrahydrobenzothiazole-2,6-diamine]	3500	1000	1000	
Nc1nc2c(s1)CC(c1cccc(Cl)c1)(N1CCCC1)CC2 (racemic) [rac-A51, 6-(3-chlorophenyl)-6-(pyrrolidin-1-yl)-4,5,6,7-tetrahydrobenzothiazol-2-amine]	300	200	1200	
Nc1nc2c(s1)CC(N)(c1cccc(F)c1)CC2 (racemic) [rac-A10, 6-(3-fluorophenyl)-4,5,6,7-tetrahydrobenzothiazole-2,6-diamine]	4200	6600	1300	
NC1(c2ccccc2)CCc2[nH]ncc2C1 (racemic) [rac-A65, 5-phenyl-4,5,6,7-tetrahydro-1H-indazol-5-amine]	7000		1900	
Nc1nc2c(s1)CC(NCC1CC1)(c1ccccc1)CC2 (racemic) [rac-A67, 6-phenyl-N^6-(cyclopropylmethyl)-4,5,6,7-tetrahydrobenzothiazole-2,6-diamine]	3000			
CNC1(c2ccccc2)CCCc2sc(N)nc21 (racemic) [rac-A38, N^4-methyl-4-phenyl-4,5,6,7-tetrahydrobenzothiazole-2,4-diamine]				half-life at 1 μM ([4]; read-out: Half-life (t1/2, min)): 98 min; CLint scaled at 1 μM ([4]; read-out: Intrinsic clearance (Clint, mL/min/kg)): 41.3 mL/min/kg; bioavailability ([5]; male, ICR, po, 10 mg/kg): 71%; AUC(0-inf) ([5]; male, ICR, po, 10 mg/kg): 1620 ng·h/mL; Cmax ([5]; male, ICR, po, 10 mg/kg): 360 ng/mL; half-life ([5]; male, ICR, po, 10 mg/kg): 1.8 h; Effective dose [6]: 3 mg/kg
Nc1nc2c(s1)CC(c1ccccc1)(N1CCCC1)CC2 (racemic) [rac-A50, 6-Phenyl-6-(Pyrrolidin-1-Yl)-4,5,6,7-Tetrahydrobenzothiazol-2-amine]	800	100	1700	bioavailability [5]: 38%; AUC(0-inf) [5]: 321 ng·h/mL; Cmax [5]: 150 ng/mL; half-life [5]: 1.48 h
